Test results from patent publication US20240032546A1, “BRASSICA SEED MEAL (BSM)-BASED BIO-HERBICIDE FOR INHIBITING WEED GERMINATION, AND PREPARATION METHOD AND USE THEREOF” (Institute of Soil Science, CAS, priority 2022, published 2024).

Tested on: field weeds (Portulaca oleracea L., Bothriochloa ischaemum L., Eleusine indica L., Setaria viridis L., and Amaranthus spinosus L.)
Assay: Field soil test of weed growth and germination inhibition
Format: in vivo
Conditions: after 1 week, dazomet 40 g/m2, BSM-based bio-herbicide 0.8 wt %
Protocol: Dazomet was added to the field soil at 40 g/m 2 of soil (as a treatment 1). The BSM-based bio-herbicide (Example 1) was added to another field soil at 0.8 wt % of the BSM per mu of soil (1 mu=300,000 jin) (as a treatment 2). The same area of field soil without adding any exogenous substances was used as a control. After 1 week, the weed growth of the two treatments and the control (field weeds included Portulaca oleracea L., Bothriochloa ischaemum L., Eleusine indica L., Setaria viridis L., and Amaranthus spinosus L.) was counted, and the germination inhibition rate of weed seeds was calculated.

SMILES: CN1CSC(=S)N(C)C1 [dazomet, Dazomet]
- inhibition rate to the field weeds compared with the control: 86.84%
- weight of field weeds (control 1.550 kg/m^2): 0.204 kg/m^2
